The values below come from US20260306460A1, “COMPOSITION FOR REMOVING AND INHIBITING SENESCENT CELLS, AND USES THEREOF” (LIFECEUTIX CO., LTD., priority 2023, published 2026).

One assay deals with senescent cells. Briefly: Viability of senescent cells (CellTiter-Glo), Example 17, Table 13. Particulars: Homo sapiens, read-out: Survival (%).
The subject of the next assay is senescent A549 cells. Description: Viability of senescent A549 cells (CellTiter-Glo), Example 18, Table 15. Particulars: Homo sapiens, A549, read-out: Survival (%). (In ATP-based viability assays light output follows the ATP content of the culture.)

Protocol for senescent A549 cells: Senescence-induced cancer cells treated with doxorubicin were treated with the test compound at designated concentrations, and cell viability was measured using the CellTiter-Glo Luminescent Cell Viability Assay (Promega).
Protocol for senescent cells: Cells induced to undergo senescence by doxorubicin treatment were treated with test compound at designated concentrations and measured using the CellTiter-Glo Luminescent Cell Viability Assay (Promega).

Regarding `Nc1nc2nc[nH]c2c(=S)[nH]1` [LX-6530, Thioguanine], in the assay on senescent cells, the viability at 1.1 µM worked out at 106%, the viability at 10 µM was 112% and the viability at 30 µM turned out to be 46.1%. Moreover, in the assay with senescent A549 cells, the viability at 1.1 µM came to 97.9%, the viability at 10 µM came out at 83.9%, the viability at 30 µM turned out to be 61.1% and the viability at 90 µM was found to be 10.3%.

Consider `CCCCCCCC/C(=C\CCCCCCCC(=O)O)[N+](=O)[O-]` [LX-7111, 10-Nitrooleic acid], for which, in the assay with senescent cells, the viability at 1.1 µM amounted to 78.1% and the viability at 10 µM came to 22%. In the assay with senescent A549 cells, the viability at 1.1 µM worked out at 79.2%, the viability at 10 µM turned out to be 43.7% and the viability at 30 µM amounted to 0.8%.

Take `N=C(NC(=N)N1CCCC1)Nc1ccc(OC(F)(F)F)cc1` [LX-7403, Lixumistat]: in the assay with senescent cells, the viability at 1.1 µM turned out to be 94.5%, the viability at 10 µM came out at 72.3% and the viability at 30 µM was found to be 38.4%. In the assay with senescent A549 cells, the viability at 1.1 µM turned out to be 99.5%, the viability at 10 µM was 52.7% and the viability at 30 µM amounted to 7.5%.

`Cn1cc(C2=C(c3cn(C4CCN(Cc5ccccn5)CC4)c4ccccc34)C(=O)NC2=O)c2ccccc21` [LX-7135, Enzastaurin]: the figures for the viability at 1.1 µM with senescent cells and in the assay with senescent A549 cells were 75.7% and 94.7%, respectively. Besides, the viability at 10 µM with senescent A549 cells was 5.7%.

`Cc1ccccc1CN1C(=O)C2=C(CCN(Cc3ccccc3)C2)N2CCN=C12` [LX-7261, Dordaviprone]: the viability at 1.1 µM stood at 63.7% in the assay with senescent cells and 52.4% in the assay with senescent A549 cells.

Take `CC(C)(CCCCCC(O)CCCCCC(C)(C)C(=O)O)C(=O)O` [LX-9602, Bempedoic acid]: in the assay on senescent cells, the viability at 1.1 µM was determined as 113%, the viability at 10 µM was 102%, the viability at 30 µM came to 92.2% and the viability at 90 µM is 11.1%. In the assay with senescent A549 cells, the viability at 1.1 µM was 101%, the viability at 10 µM amounted to 96.4%, the viability at 30 µM turned out to be 75.4% and the viability at 90 µM stood at 3.8%.

In the case of `C#CCC(Cc1cnc2nc(N)nc(N)c2n1)c1ccc(C(=O)N[C@@H](CCC(=O)O)C(=O)O)cc1` (some centres unmarked) [LX-7405, Pralatrexate], in the assay with senescent cells, the viability at 1.1 µM is 100%, the viability at 10 µM amounted to 79% and the viability at 30 µM is 40.6%. In the assay with senescent A549 cells, the viability at 1.1 µM was determined as 94.7%, the viability at 10 µM was determined as 78.4% and the viability at 30 µM turned out to be 12.1%.

As for `CN1CCCC1` [LX-9425, N-methyl pyrrolidine], in the assay with senescent cells, the viability at 1.1 µM was 102%, the viability at 10 µM worked out at 97.5% and the viability at 30 µM is 66.8%. Further, in the assay with senescent A549 cells, the viability at 1.1 µM came to 97.5%, the viability at 10 µM is 100% and the viability at 30 µM stood at 68.2%.

Turning to `CC[C@@H]1C(=O)N(C)c2cnc(Nc3ccc(C(=O)N[C@H]4CC[C@H](N5CCN(CC6CC6)CC5)CC4)cc3OC)nc2N1C(C)C` [LX-6207, Volasertib], in the assay on senescent cells, the viability at 1.1 µM was determined as 68.7% and the viability at 10 µM is 8.6%. Besides, in the assay with senescent A549 cells, the viability at 1.1 µM turned out to be 88.2%, the viability at 10 µM was 41% and the viability at 30 µM stood at 9.4%.

As to `O=C1Nc2ccccc2/C1=C1/Nc2ccc(C(=O)NCC3CCN(C(=O)CCl)CC3)cc2C1=O` [LX-5328], in the assay with senescent cells, the viability at 1.1 µM is 54.3% and the viability at 10 µM was 2%. In addition, in the assay with senescent A549 cells, the viability at 1.1 µM came to 62.7% and the viability at 10 µM came to 0.4%.

As to `COc1ccc(F)cc1C(=O)NCc1ccc(-c2nn([C@@H](C)C(F)(F)F)c(N)c2C(N)=O)cc1` [LX-6981, Pirtobrutinib], the viability at 1.1 µM in the assay on senescent cells turned out to be 0.2%; with senescent A549 cells, 43.1%.

With `C[C@@]12C[C@@]3(O)O[C@@H](O1)[C@]1(COC(=O)c4ccccc4)[C@H]3C[C@@]12O[C@@H]1O[C@H](CO)[C@@H](O)[C@H](O)[C@H]1O` [LX-6804, Paeoniflorin], in the assay with senescent cells, the viability at 1.1 µM is 87.5% and the viability at 10 µM was found to be 28.5%. Further, in the assay with senescent A549 cells, the viability at 1.1 µM amounted to 78.8%, the viability at 10 µM came out at 40.8% and the viability at 30 µM stood at 8.4%.

On to `CCOc1cc(CC(=O)N[C@@H](CC(C)C)c2ccccc2N2CCCCC2)ccc1C(=O)O` [LX-9302, Repaglinide], for which, in the assay on senescent cells, the viability at 1.1 µM was found to be 99.7%, the viability at 10 µM was found to be 73.5% and the viability at 30 µM is 34.3%. Also, in the assay with senescent A549 cells, the viability at 1.1 µM turned out to be 94.1%, the viability at 10 µM turned out to be 82.3%, the viability at 30 µM is 68.5% and the viability at 90 µM came to 11.8%.

With `Nc1ncn([C@H]2C[C@@H](O)[C@@H](CO)S2)c(=O)n1` [LX-7288, 4′-thio-5-aza-2′-deoxycytidine], the values for the viability at 1.1 µM in the assay on senescent cells and with senescent A549 cells were 41.8% and 48.3%, respectively.

In the case of `COc1cc(Cc2cnc(N)nc2N)cc(OC)c1OC` [LX-9114, Trimethoprim], in the assay on senescent cells, the viability at 1.1 µM amounted to 102%, the viability at 10 µM worked out at 88.6% and the viability at 30 µM amounted to 16.1%. Moreover, in the assay with senescent A549 cells, the viability at 1.1 µM stood at 95.2%, the viability at 10 µM amounted to 74.4% and the viability at 30 µM is 20.7%.

For the molecule `CC(=O)NCCOC(=O)[C@H](Oc1cccc(C(F)(F)F)c1)c1ccc(Cl)cc1` [LX-9409, Arhalofenate], in the assay on senescent cells, the viability at 1.1 µM was found to be 80.5%, the viability at 10 µM came to 65.7% and the viability at 30 µM was 15.3%. Moreover, in the assay with senescent A549 cells, the viability at 1.1 µM worked out at 72.7%, the viability at 10 µM turned out to be 51.9% and the viability at 30 µM came out at 8.7%.

With `Cc1ncc([N+](=O)[O-])n1CCO` [LX-9107, Metronidazole], in the assay on senescent cells, the viability at 1.1 µM came out at 106%, the viability at 10 µM is 87.3% and the viability at 30 µM came to 26.2%. In the assay on senescent A549 cells, the viability at 1.1 µM was 95.6%, the viability at 10 µM is 77.8% and the viability at 30 µM turned out to be 5%.

On to `NS(=O)(=O)OC[C@@H]1C[C@@H](n2ccc3c(N[C@H]4CCc5ccccc54)ncnc32)C[C@@H]1O` [LX-6202, Pevonedistat], for which the values for the viability at 1.1 µM with senescent cells and in the assay on senescent A549 cells were 1.5% and 53.3%, respectively.

Regarding `COc1ccc(Cl)cc1C(=O)NCCc1ccc(S(=O)(=O)NC(=O)NC2CCCCC2)cc1` [LX-9335, glyburide], in the assay with senescent cells, the viability at 1.1 µM stood at 85.2%, the viability at 10 µM is 56.3% and the viability at 30 µM worked out at 12.2%. Further, in the assay on senescent A549 cells, the viability at 1.1 µM is 90.2%, the viability at 10 µM was 60.8% and the viability at 30 µM was found to be 13.8%.

Take `Cc1cccc2c1NC(=O)[C@@H](NC(=O)[C@H](CCC(F)(F)F)[C@H](CCC(F)(F)F)C(N)=O)N=C2c1cccc(F)c1` [LX-6514]: in the assay with senescent cells, the viability at 1.1 µM amounted to 97.2%, the viability at 10 µM was determined as 63.3% and the viability at 30 µM amounted to 2.7%. Moreover, in the assay on senescent A549 cells, the viability at 1.1 µM is 107%, the viability at 10 µM was 51.2% and the viability at 30 µM worked out at 0.2%.

Turning to `CS(=O)(=O)c1ccc(Oc2cc(F)cc(C#N)c2)c2c1[C@H](O)[C@H](F)[C@@H]2F` [LX-7451, Belzutifan], in the assay on senescent cells, the viability at 1.1 µM turned out to be 105% and the viability at 10 µM is 39.2%. In addition, in the assay on senescent A549 cells, the viability at 1.1 µM stood at 100%, the viability at 10 µM was 68.7% and the viability at 30 µM is 10.7%.

With `NCCCC(O)(P(=O)(O)O)P(=O)(O)O` [LX-9105, Alendronate], in the assay with senescent cells, the viability at 1.1 µM is 102%, the viability at 10 µM is 96%, the viability at 30 µM turned out to be 89.9% and the viability at 90 µM was found to be 4.2%. In the assay on senescent A549 cells, the viability at 1.1 µM stood at 105%, the viability at 10 µM was determined as 96.2%, the viability at 30 µM turned out to be 57.1% and the viability at 90 µM stood at 6.9%.

Consider `CC(C)C[C@H](CN)CC(=O)O` [LX-9131, Pregabalin], for which, in the assay with senescent cells, the viability at 1.1 µM worked out at 81.9%, the viability at 10 µM was found to be 47.7% and the viability at 30 µM stood at 13.2%. In the assay on senescent A549 cells, the viability at 1.1 µM stood at 91.7%, the viability at 10 µM came out at 83.3%, the viability at 30 µM stood at 57.9% and the viability at 90 µM turned out to be 12.4%.

`COc1cc(Nc2ncc3c(n2)-c2ccc(Cl)cc2C(c2c(F)cccc2OC)=NC3)ccc1C(=O)O` [LX-6203, Alisertib]: in the assay on senescent cells, the viability at 1.1 µM stood at 75.1% and the viability at 10 µM is 13.1%. In addition, in the assay on senescent A549 cells, the viability at 1.1 µM amounted to 96.4%, the viability at 10 µM is 30.7% and the viability at 30 µM came to 2.1%.

As for `O=c1sn(-c2cccc3ccccc23)c(=O)n1Cc1ccccc1` [LX-7121, Tideglusib], in the assay on senescent cells, the viability at 1.1 µM came to 94.7%, the viability at 10 µM came to 57.9% and the viability at 30 µM was determined as 3.9%. Further, in the assay with senescent A549 cells, the viability at 1.1 µM was 76.5%, the viability at 10 µM was 52.4% and the viability at 30 µM was determined as 12.8%.

Regarding `NC(=O)c1ccc(-c2cc3c(NC4CCS(=O)(=O)CC4)cccc3n2CC(F)(F)F)cc1` [LX-5904], in the assay with senescent cells, the viability at 1.1 µM stood at 103%, the viability at 10 µM came out at 25.9% and the viability at 30 µM turned out to be 2.2%. In the assay on senescent A549 cells, the viability at 1.1 µM is 95.4%, the viability at 10 µM is 45.2% and the viability at 30 µM was found to be 10.9%.

As for `C=C(C#N)CNc1c(OC)ccc2ccc(-c3ccc(S(C)(=O)=O)cn3)cc12` [LX-5906], in the assay with senescent cells, the viability at 1.1 µM worked out at 97.2%, the viability at 10 µM was found to be 30.7% and the viability at 30 µM came out at 0.4%. In addition, in the assay on senescent A549 cells, the viability at 1.1 µM was 98.7%, the viability at 10 µM came out at 41.5% and the viability at 30 µM came to 5.9%.

Consider `COc1ccccc1OCC(O)CN1CCN(CC(=O)Nc2c(C)cccc2C)CC1` (centres unmarked) [LX-9565, Ranolazine], for which, in the assay with senescent cells, the viability at 1.1 µM was 78.9%, the viability at 10 µM is 52.3% and the viability at 30 µM is 6.1%. For the same molecule, in the assay with senescent A549 cells, the viability at 1.1 µM is 97%, the viability at 10 µM was 67.3%, the viability at 30 µM turned out to be 34.1% and the viability at 90 µM stood at 3.6%.

Consider `O=C1C2=C(CCN(Cc3ccccc3)C2)N2CCN=C2N1Cc1ccc(F)cc1F` [LX-7262], for which the values for the viability at 1.1 µM in the assay on senescent cells and with senescent A549 cells were 52.8% and 69.5%, respectively.
